In assay [1] the target is Human immunodeficiency virus type 1 reverse transcriptase (Human immunodeficiency virus 1, UniProt Q72547). Kind of assay: Inhibitory activity against HIV-1 reverse transcriptase enzyme.
The subject of assay [2] is Human immunodeficiency virus 1.

In general, IC50 refers to the point on the concentration scale where inhibition reaches its midpoint. For orientation: IC90 means the concentration at which the effect reaches the 90% level. Higher therefore signals a need for much substance.

In turn, `O=C1Nc2c(F)ccc(F)c2C(C#CC2CC2)(C(F)(F)F)O1` (stereo not given) yielded an IC50 in assay [1] of 796 nM. The 90% effect level in assay [2] (IC90) was put at 18 nM.
Taken in the same sequence, the figures for `COc1ccc2c(c1)C(C#CC1CC1)(C(F)(F)F)OC(=O)N2` (stereo not given) were 131 nM and 2 nM.
Taken in the same sequence, the figures for `CN(C)c1ccc2c(c1)C(C#CC1CC1)(C(F)(F)F)OC(=O)N2` (stereo not given) were 816 nM and 8.33 nM.
In assay [1], `Cc1ccc2c(c1)C(C#CC1CC1)(C(F)(F)F)OC(=O)N2` (stereo not given) gave an IC50 of 133 nM. The same compound showed an IC90 in assay [2] of 7.11 nM.
Taken in the same sequence, the figures for `O=C1Nc2cc3ccccc3cc2C(C#CC2CC2)(C(F)(F)F)O1` (stereo not given) were 1910 nM and 26.9 nM.
Taken in the same sequence, the figures for `O=C1Nc2ccccc2C(C#CC2CC2)(C(F)(F)F)O1` (stereo not given) were 478 nM and 10.3 nM.
In the same order, the values of `O=C1Nc2ccc(-c3ccccc3)cc2C(C#CC2CC2)(C(F)(F)F)O1` (stereo not given) are more than 2000 nM and 249 nM.
The compound `O=C1Nc2ccc(OC(F)(F)F)cc2C(C#CC2CC2)(C(F)(F)F)O1` (stereo not given) returned an IC50 in assay [1] of 1250 nM. The same compound displayed an IC90 in assay [2] of 18.9 nM.
With `O=C1Nc2c(F)cc(Cl)cc2C(C#CC2CC2)(C(F)(F)F)O1` (stereo not given), in assay [2], the IC90 is 7.19 nM.
`O=C1Nc2ccc(F)cc2C(C#CC2CC2)(C(F)(F)F)O1` (stereo not given): the IC50 in assay [1] stood at 190 nM. This compound also displayed an IC90 in assay [2] of 7.35 nM.
Compound `O=C1Nc2c(Cl)cc(Cl)cc2C(C#CC2CC2)(C(F)(F)F)O1` (stereo not given) registered an IC50 in assay [1] of more than 2000 nM. The same compound displayed an IC90 in assay [2] of 28.6 nM.
In the same order, the values of `O=C1Nc2cc(F)c(F)c(F)c2C(C#CC2CC2)(C(F)(F)F)O1` (stereo not given) are 442 nM and 19.6 nM.
Taken in the same sequence, the figures for `CC(C)c1ccc2c(c1)C(C#CC1CC1)(C(F)(F)F)OC(=O)N2` (stereo not given) were 1960 nM and 27.8 nM.
In the same order, the values of `O=C1Nc2c(F)cc(F)c(F)c2C(C#CC2CC2)(C(F)(F)F)O1` (stereo not given) are 800 nM and 14 nM.
Consider `O=C1Nc2c(cc(F)c(F)c2F)C(C#CC2CC2)(C(F)(F)F)O1` (stereo not given), for which the IC50 in assay [1] is more than 2000 nM. It took 418 nM to reach the 90% level in assay [2] (IC90).
For `O=C1Nc2ccc(F)c(F)c2C(C#CC2CC2)(C(F)(F)F)O1` (stereo not given), the IC50 in assay [1] was 84 nM.

The values above are taken from ChEMBL document CHEMBL1132524, “Synthesis and evaluation of analogs of Efavirenz (SUSTIVA) as HIV-1 reverse transcriptase inhibitors” (Bioorg Med Chem Lett, 1999).
